Experimental data: patent US20090099204A1, “Amide derivative, insecticide containing the same and method for application thereof as insecticide” (Mitsui Chemicals, Inc., priority 2005, published 2009)

How the values were obtained:
Assay type in all cases: in vivo
[1] = system: Diamondback Moth (Plutella xylostella); experiment: Insecticidal Test on Diamondback Moth (Plutella xylostella); conditions: Comparative Example 1; same conditions as Test Example 2
Protocol: Insecticidal Test on Diamondback Moth (Plutella xylostella)
(§1) A piece of cabbage leaf was immersed for 30 seconds in a liquid chemical prepared by diluting a test compound to a prescribed concentration. After air-drying, the piece was put into a 7-cm polyethylene cup and second-instar larvae of diamondback moths were released thereinto. The polyethylene cups were set in an isothermal chamber thermostated at 25° C. From the release, 6 days later, the dead and alive were counted. The test was carried out with two replications of 5 insects per a plot.

[2] = system: Melon Thrip (Thrips palmi); experiment: Insecticidal Test on Melon Thrip (Thrips palmi); conditions: Comparative Example 1; same conditions as Test Example 4
Excerpt: Insecticidal Test on Melon Thrip (Thrips palmi)
Into a plastic cup (diameter: 5 cm, height: 5 cm) was poured 1% agar gel, and the reverse side of a cucumber leaf cut with a diameter of 4.5 cm was placed upward to prepare leaf disc. A chemical to the prescribed concentration was dispersed thereon using a vertical sprayer. After air-drying, 5 adult melon thrips were released thereinto and the resulting material was lidded. 3 days thereafter, the number of surviving insects was counted and the mortality was calculated.

[3] = system: Common Cutworm (Spodoptera litura); experiment: Insecticidal Test on Common Cutworm (Spodoptera litura); conditions: Comparative Example 1; same conditions as Test Example 1
Protocol: Insecticidal Test on Common Cutworm (Spodoptera litura)
as §1, with “common cutworms” for “diamondback moths”, “release” for “release,”

[4] = system: Onion Thrip (Thrips tabaci); conditions: Comparative Example 1; same conditions as Test Example 5
Protocol: Insecticidal Test on Onion Thrip (Thrips tabaci)
A chemical to the prescribed concentration was dispersed on onion seedlings, air-dried, and then both the seedlings and 5 adult insects of onion thrips were put into a glass test tube (diameter; 3 cm, height: 10 cm). The resulting material was lidded. 3 days thereafter, the number of surviving insects was counted and the mortality was calculated.

[5] = system: Western Flower Thrip (Franklinella occidentalis); experiment: Insecticidal Test on Western Flower Thrip (Franklinella occidentalis); conditions: Comparative Example 1; same conditions as Test Example 3

Measured: insecticidal activity

Cc1cc(C(F)(C(F)(F)F)C(F)(F)F)ccc1NC(=O)c1cccc(NC(=O)c2ccccc2I)c1 [Compound A, N-(4-heptafluoroisopropyl-2-methyl)phenyl 3-(2-iodobenzoylamino)benzamide]
could not be confirmed: all assays above

Cc1cc(C(F)(F)F)cc(C)c1NC(=O)c1cccc(NC(=O)c2ccccc2)c1 [Compound B, N-(2,6-dimethyl-4-trifluoromethyl)phenyl 3-(benzoylamino)benzamide]
could not be confirmed: all assays above
